Source: US20150196578A1, “COMBINATION THERAPY TREATMENT FOR VIRAL INFECTIONS” (priority 2009, published 2015)
Several values for one entry are separate records, joined by “and”; a condition that tells them apart may be missing. Equal entries are not always repeated. Where two headings read alike, the source gives them in different places.

Tested on: Influenza A/Duck/MN/1525/81 (H5N1) virus
Parameters: species or system BALB/c mice
Details: mouse, in vivo

SMILES	mice survived to day 21	survival rate	mean day of death (MDD) (sodium salt)	mean day of death (MDD)
CC#CCC(C)[C@H](O)/C=C/[C@@H]1[C@H]2c3cccc(CCCC(=O)[O-])c3O[C@H]2C[C@H]1O.[Na+] (mixture of isomers) [beraprost, (+)-[1R,2R,3aS,8bS]-2,3,3a,8b-tetrahydro-2-hydroxyl-1-[(E)-(3S,4RS)-3-hydroxyl-4-methyl-1-octen-6-ynyl)-1H-cyclopenta[b]benzofuran-5-butanoic acid, sodium salt]	6 of 10	50%	9.0 ± 3.9 days and 8.0 ± 2.0 days	
CCOC(=O)C1=C[C@@H](OC(CC)CC)[C@H](NC(C)=O)[C@@H](N)C1 [oseltamivir]	8 out of 10	70%		9.0 ± 0.0 days and 11.4 ± 1.8 days
